Each block holds one compound with its values, some of them ahead of it. Active and inactive are the calls of the source.
What was measured:
Melanocortin receptor 4 = Melanocortin receptor 4 (Homo sapiens, UniProt P32245); assay: inhibitors of MC4R cAMP signaling – cell-based, TR-FRET, biased antagonists, dose response (AID 602298); type: functional;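 also: antagonist potency against agonist-stimulated cAMP production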
[1] = cAMP pathway inhibition in counterscreen cell line – TR-FRET cAMP detection, counter-screen for MC4R biased antagonist project, dose response (AID 602305); type: functional, cell-based;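 also: U2OS cells stimulated with forskolin near its EC80 as the cAMP inducer; potency is for inhibition of forskolin-stimulated cAMP signaling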
[2] = target: MAP kinase-interacting serine/threonine-protein kinase 2 (Homo sapiens, UniProt Q9HBH9); type: functional
[3] = target: Dual specificity protein kinase CLK4 (Homo sapiens, UniProt Q9HAZ1); type: functional
[4] = target: Mitogen-activated protein kinase kinase kinase kinase 4 (Homo sapiens, UniProt O95819); type: functional
[5] = target: Glycogen synthase kinase-3 beta (Homo sapiens, UniProt P49841); type: functional;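 also: value comes from a broad kinome profiling panel, with GSK3B as the panel member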
[6] = target: Serine/threonine-protein kinase pim-1 (Homo sapiens, UniProt P11309); type: functional
[7] = target: cAMP-dependent protein kinase catalytic subunit alpha (Homo sapiens, UniProt P17612); type: functional
[8] = target: Cell division cycle 7-related protein kinase (Homo sapiens, UniProt O00311); type: functional;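 also: value obtained from a kinome-wide kinase panel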
[9] = target: Interleukin-1 receptor-associated kinase 4 (Homo sapiens, UniProt Q9NWZ3); type: functional
[10] = target: Cyclin-dependent kinase 2 (Homo sapiens, UniProt P24941); type: functional;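 also: CDK2 measured as one member of a broad kinome profiling panel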
[11] = target: Homeodomain-interacting protein kinase 2 (Homo sapiens, UniProt Q9H2X6); type: functional;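 also: measured within a kinome-wide kinase profiling panel, HIPK2 being one panel member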
[12] = target: Vascular endothelial growth factor receptor 2 (Homo sapiens, UniProt P35968); type: functional
Aurora kinase B = Aurora kinase B (Homo sapiens, UniProt Q96GD4); type: functional
Aurora kinase A = Aurora kinase A (Homo sapiens, UniProt O14965); type: functional;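 also: value from the Navigating the Kinome kinase panel profiling, panel entry STK6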
[13] = target: Melanin-concentrating hormone receptor 1 (Homo sapiens, UniProt Q99705); assay: Late-stage fluorescence-based counterscreen for antagonists of the G-protein coupled receptor 7 (GPR7): cell-based dose response assay to identify antagonists of the melanin-concentrating hormone receptor 1 (MCHR1) Set 5.; type: functional
[14] = target: Neuropeptides B/W receptor type 1 (Homo sapiens, UniProt P48145); assay: human NPBW1 receptor blockade, IC50 – cell-based, fluorescence, dose response, set 5, late-stage follow-up (AID 588566); type: functional
Neuropeptides B/W receptor type 1, sequence (P48145 whole entry): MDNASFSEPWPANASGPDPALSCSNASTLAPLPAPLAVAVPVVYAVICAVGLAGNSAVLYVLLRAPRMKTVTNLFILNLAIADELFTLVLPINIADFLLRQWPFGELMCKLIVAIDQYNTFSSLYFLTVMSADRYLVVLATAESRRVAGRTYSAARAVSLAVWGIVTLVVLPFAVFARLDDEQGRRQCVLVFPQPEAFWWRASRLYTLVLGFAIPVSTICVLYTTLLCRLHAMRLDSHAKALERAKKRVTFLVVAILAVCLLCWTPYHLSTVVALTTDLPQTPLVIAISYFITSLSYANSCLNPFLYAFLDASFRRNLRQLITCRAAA

Melanin-concentrating hormone receptor 1, sequence (Q99705 whole entry): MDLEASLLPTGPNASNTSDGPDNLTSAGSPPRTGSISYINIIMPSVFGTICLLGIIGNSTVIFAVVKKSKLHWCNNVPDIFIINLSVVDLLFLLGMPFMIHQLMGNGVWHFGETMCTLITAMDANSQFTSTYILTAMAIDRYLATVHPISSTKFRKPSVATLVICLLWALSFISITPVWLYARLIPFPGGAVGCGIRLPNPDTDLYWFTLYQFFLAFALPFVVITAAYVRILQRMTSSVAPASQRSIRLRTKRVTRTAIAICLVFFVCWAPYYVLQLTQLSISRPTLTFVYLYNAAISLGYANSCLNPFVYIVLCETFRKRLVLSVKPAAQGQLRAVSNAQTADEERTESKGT
Vascular endothelial growth factor receptor 2, sequence (P35968 whole entry): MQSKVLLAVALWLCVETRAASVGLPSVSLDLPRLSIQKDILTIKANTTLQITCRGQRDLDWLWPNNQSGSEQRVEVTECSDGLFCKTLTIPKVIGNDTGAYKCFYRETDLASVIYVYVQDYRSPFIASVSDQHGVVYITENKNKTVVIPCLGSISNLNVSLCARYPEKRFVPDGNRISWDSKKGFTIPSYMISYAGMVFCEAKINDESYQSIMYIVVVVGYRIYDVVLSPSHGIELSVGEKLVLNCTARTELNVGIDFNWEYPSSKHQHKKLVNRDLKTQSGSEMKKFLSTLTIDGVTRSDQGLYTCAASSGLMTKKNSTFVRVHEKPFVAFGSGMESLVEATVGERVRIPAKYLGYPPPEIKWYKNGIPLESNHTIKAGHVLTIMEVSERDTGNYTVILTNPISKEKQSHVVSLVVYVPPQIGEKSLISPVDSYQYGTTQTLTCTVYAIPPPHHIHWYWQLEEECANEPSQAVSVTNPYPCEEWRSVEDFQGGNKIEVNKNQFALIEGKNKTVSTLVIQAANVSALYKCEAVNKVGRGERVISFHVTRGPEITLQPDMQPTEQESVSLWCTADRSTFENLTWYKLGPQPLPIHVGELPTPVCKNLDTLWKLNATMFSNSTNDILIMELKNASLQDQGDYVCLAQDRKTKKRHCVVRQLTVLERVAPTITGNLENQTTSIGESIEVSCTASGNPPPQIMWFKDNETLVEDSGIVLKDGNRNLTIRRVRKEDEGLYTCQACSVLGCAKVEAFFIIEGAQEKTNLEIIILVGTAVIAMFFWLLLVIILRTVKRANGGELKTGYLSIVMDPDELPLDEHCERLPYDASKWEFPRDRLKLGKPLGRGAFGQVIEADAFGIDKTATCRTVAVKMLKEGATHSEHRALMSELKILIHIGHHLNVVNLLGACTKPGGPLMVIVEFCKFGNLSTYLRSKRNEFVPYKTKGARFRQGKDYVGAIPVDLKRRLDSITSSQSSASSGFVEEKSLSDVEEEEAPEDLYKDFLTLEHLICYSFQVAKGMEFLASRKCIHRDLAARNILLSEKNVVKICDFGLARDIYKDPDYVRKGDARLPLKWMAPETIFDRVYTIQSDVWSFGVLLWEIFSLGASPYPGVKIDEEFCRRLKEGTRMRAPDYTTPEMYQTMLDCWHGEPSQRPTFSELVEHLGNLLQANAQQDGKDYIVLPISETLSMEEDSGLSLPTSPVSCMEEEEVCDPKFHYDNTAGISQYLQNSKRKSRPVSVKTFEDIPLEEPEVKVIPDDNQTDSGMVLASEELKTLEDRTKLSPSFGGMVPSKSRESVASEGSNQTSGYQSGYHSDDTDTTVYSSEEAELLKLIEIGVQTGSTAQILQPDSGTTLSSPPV
Interleukin-1 receptor-associated kinase 4, sequence (Q9NWZ3 whole entry): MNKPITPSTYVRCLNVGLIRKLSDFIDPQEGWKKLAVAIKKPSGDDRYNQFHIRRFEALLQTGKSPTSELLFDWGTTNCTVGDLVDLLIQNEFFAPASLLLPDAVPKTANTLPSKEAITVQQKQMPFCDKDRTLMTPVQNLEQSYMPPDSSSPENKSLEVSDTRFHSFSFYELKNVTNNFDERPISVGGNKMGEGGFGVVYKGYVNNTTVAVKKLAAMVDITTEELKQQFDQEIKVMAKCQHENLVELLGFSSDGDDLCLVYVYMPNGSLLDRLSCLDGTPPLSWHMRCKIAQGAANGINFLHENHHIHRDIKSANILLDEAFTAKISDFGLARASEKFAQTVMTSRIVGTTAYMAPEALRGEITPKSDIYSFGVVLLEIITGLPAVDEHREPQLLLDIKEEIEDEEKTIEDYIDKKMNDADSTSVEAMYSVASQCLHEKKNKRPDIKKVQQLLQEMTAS
Homeodomain-interacting protein kinase 2, sequence (Q9H2X6 whole entry): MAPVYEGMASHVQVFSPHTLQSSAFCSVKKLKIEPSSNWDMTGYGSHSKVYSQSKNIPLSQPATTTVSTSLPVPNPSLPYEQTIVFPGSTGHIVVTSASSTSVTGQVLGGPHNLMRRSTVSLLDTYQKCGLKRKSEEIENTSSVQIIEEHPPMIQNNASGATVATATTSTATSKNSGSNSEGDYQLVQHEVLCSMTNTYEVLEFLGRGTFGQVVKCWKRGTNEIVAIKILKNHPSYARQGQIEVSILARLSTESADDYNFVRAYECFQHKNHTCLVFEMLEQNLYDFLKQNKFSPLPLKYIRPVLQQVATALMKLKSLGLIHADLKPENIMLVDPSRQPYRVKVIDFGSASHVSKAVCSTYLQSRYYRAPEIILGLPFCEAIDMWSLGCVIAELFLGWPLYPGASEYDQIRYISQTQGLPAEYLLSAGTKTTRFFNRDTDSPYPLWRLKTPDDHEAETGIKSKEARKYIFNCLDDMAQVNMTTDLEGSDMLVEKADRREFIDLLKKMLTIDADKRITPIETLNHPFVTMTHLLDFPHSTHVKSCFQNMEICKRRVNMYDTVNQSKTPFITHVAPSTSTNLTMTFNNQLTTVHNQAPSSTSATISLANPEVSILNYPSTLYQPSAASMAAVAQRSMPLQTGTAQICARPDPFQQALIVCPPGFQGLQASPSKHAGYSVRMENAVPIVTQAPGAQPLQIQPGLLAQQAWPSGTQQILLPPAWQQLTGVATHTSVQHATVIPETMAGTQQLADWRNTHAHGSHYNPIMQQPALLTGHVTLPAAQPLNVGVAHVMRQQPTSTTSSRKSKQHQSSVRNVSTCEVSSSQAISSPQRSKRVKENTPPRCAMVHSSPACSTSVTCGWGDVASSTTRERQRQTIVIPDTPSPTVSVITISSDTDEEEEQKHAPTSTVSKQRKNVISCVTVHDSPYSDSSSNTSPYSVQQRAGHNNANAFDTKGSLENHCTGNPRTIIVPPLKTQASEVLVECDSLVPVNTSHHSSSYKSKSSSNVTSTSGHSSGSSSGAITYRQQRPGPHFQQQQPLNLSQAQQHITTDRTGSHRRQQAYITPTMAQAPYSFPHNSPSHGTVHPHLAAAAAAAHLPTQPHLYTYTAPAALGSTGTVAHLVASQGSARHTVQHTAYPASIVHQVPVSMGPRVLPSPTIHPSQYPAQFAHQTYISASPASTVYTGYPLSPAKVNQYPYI
Serine/threonine-protein kinase pim-1, sequence (P11309 whole entry): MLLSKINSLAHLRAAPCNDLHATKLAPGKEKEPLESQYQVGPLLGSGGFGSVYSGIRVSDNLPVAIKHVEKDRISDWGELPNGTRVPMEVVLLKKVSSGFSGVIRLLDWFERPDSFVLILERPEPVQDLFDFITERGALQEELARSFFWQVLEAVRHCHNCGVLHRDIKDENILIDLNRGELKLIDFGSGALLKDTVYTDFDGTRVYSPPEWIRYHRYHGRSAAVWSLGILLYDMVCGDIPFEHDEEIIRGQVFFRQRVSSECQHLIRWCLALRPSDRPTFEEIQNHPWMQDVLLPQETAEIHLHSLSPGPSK
MAP kinase-interacting serine/threonine-protein kinase 2, sequence (Q9HBH9 whole entry): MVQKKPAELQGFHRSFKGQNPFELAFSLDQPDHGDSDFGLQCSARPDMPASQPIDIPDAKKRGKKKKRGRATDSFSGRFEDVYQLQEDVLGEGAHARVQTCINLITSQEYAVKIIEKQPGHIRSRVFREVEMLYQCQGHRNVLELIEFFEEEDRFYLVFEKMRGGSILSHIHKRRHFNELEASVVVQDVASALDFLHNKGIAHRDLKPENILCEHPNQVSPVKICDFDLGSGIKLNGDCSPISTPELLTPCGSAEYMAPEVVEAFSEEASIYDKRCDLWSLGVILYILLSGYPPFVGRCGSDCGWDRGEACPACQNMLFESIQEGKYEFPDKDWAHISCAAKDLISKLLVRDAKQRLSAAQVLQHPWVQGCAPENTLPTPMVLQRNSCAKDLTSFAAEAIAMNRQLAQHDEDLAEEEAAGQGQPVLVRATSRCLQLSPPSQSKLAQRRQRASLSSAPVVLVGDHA
Cell division cycle 7-related protein kinase, sequence (O00311 whole entry): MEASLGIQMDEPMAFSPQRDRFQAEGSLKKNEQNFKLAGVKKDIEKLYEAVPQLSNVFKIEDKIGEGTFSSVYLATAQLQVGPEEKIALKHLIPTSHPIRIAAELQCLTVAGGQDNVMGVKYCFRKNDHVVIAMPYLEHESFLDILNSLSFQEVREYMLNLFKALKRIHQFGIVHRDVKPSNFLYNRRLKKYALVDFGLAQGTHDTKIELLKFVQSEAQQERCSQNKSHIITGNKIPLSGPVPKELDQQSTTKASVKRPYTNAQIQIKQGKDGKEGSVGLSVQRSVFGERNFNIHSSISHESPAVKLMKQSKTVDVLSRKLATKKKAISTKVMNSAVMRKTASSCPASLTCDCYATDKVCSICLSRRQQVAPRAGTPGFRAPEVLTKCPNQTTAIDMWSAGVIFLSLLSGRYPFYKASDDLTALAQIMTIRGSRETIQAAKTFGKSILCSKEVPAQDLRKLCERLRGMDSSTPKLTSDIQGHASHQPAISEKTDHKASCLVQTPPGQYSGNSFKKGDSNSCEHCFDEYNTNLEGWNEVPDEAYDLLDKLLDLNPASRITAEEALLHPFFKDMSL

Compound: COc1cc(C(=S)N2CCOCC2)ccc1OC(=O)c1ccc([N+](=O)[O-])cc1[N+](=O)[O-]
IC50 (Melanocortin receptor 4): > 64.6 µM (inactive) | IC50 [1]: > 64.6 µM (inactive)

Ki [2]: > 10 µM (inactive) | Ki [3]: > 10 µM (inactive) | Ki [4]: > 10 µM (inactive) | Ki [5]: 6.31 µM (active) | Ki [6]: 2 µM (active) | Ki [7]: > 7.94 µM (inactive) | Ki [8]: 0.0316 µM (active) | Ki [9]: > 10 µM (inactive) | Ki [10]: > 7.94 µM (inactive) | Ki [11]: > 3.16 µM (inactive)
Compound: NC1CCCCC1Nc1nccc(Nc2ccccc2C(=O)O)n1 (configuration not stated)

Ki [12]: 3.98 µM (active) | Ki (Aurora kinase B): 0.00631 µM (active) | Ki (Aurora kinase A): 0.501 µM (active)
Compound: O=S(=O)(Nc1ccc2c(c1)C(=NO)c1ccccc1-2)c1cccc(F)c1

IC50 [13]: 11.2 µM (inactive) | IC50 [14]: 0.368 µM (active)
Compound: O=c1c(Oc2ccc3c(c2)OCO3)c(Cl)cnn1Cc1cccc2ccccc12
